In patent EP4656178A1, “COSMETIC USE OF ATRACTYLODES LANCEA ROOT EXTRACT” (Provital, S.A., priority 2024, dated 2025):

Tests used:
Type in all cases: cell-based
[1] = tested on: reconstructed human pigmented epidermis (RHPE); test: Depigmentation test: melanin quantification by imaging; settings: daily application day 9 to day 17, in comparison with Control, read-out: melanin reduction
Method: The depigmenting potential of the ALRE was assessed on reconstructed human pigmented epidermis (RHPE). Said cells were specifically generated for screening depigmenting agents or skin lightening products prior to human in vivo testing, as disclosed in Hall et al., Reconstructed human pigmented skin/epidermis models achieve epidermal pigmentation through melanocore transfer, Pigment Cell Melanoma Res., 2022, 35, 425-435. On day 9, the medium was replaced with a daily renewal, incorporating test compounds: the ALRE at concentrations of 0.2, 0.1, and 0.05 mg/ml, comparing its effect with 10 µM Retinol. In this assessment, […] DMSO was used as a negative control and 250 µM Kojic acid as a positive control. Images for melanin evaluation were captured on day 17 using Leica EZ4 W stereo microscope (Leica Microsystems, Wetzlar, Germany) and quantified as follows: all imaging processing steps were performed with the imaging software Fiji/lmageJ v 1.52n (Schindelin et al., Fiji - an Open Source platform for biological image analysis, Nat. Methods, 2012, 9(7), doi:10-1038). […] Statistical differences were determined by two-way ANOVA using R version 4.3.2 (R: A Language and Environment for Statistical Computing, n.d.). […]

[2] = tested on: Human Dermal Fibroblasts; settings: 6 h, 10 µM retinol or 0.05 mg/ml ALRE
Method: To better understand the cellular pathways and processes that were modulated by the ALRE in human dermal fibroblasts, and its relevance with respect to retinol, a comprehensive and comparative assessment of gene expression by transcriptome analysis was conducted.
Three biological triplicates of Human Dermal Fibroblasts (HDF; ZenBio Inc., Research Triangle Park, NC, USA) were stimulated for 6 h with either 10 µM retinol or 0.05 mg/ml ALRE. RNA was extracted with the TRIzol® Plus RNA Purification Kit, including DNase I treatment step, according to manufacturer's instructions. RNA quality and quantity were inspected by spectrophotometric measurement using a NanoDrop™ One spectrophotometer (Thermo Fisher Scientific, Pittsburgh, PA, USA).
Messenger RNA was purified from total RNA using poly-T oligo-attached magnetic beads. After fragmentation, the first strand cDNA was synthesized using random hexamer primers, followed by the second strand cDNA synthesis using either dUTP for directional library or dTTP for non-directional library. For the non-directional library, it was ready after end repair, A-tailing, adapter ligation, size selection, amplification, and purification. For the directional library, it was ready after end repair, A-tailing, adapter ligation, size selection, USER enzyme digestion, amplification, and purification . The library was checked with Qubit and real-time PCR for quantification and bioanalyzer for size distribution detection. Quantified libraries were pooled and sequenced (Paired-end 150 bp) on Illumina platforms, according to effective library concentration and data amount.
Obtained data were studied by bioinformatic analysis as disclosed, for example, in Liao et al, featureCounts: an efficient general purpose program for assigning sequence reads to genomic features, Bioinformatics, 2014 ,30(7), 923-30, Mortazavi et al., Mapping and quantifying mammalian transcriptomes by RNA-Seq, Nature Methods, 2008, 5(7), 621-628, and Robinson et al., edgeR: a Bioconductor package for differential expression analysis of digital gene expression data, Bioinformatics, 2010, 26(1), 139-140.
Genes involved in the following categories were studied: • 2.1.- Retinoid binding, metabolizing genes and lipid transport • 2.2.- Extracellular matrix • 2.3.- Inflammatory pathway

[3] = biological target: T1, human TRPV1 channel (Homo sapiens, UniProt Q8NER1); test: TRPV1 irritation test: intracellular calcium influx (Fluo4-NW) in TRPV1-overexpressing HEK cells; settings: 1-hour incubation, normalized to 1 µM capsaicin (100%) and assay buffer (0%)
T1 construct: expressed in transfected cells
From the text: In this TRPV1 test, compositions comprising different amounts of the A. lancea root extract (ALRE) were compared with retinol and tested on Human Embryonic Kidney (HEK) cells stably expressing this TRPV1 channel.
Cytosolic calcium influx was monitored using Fluo4-NW (Thermo Fisher Scientific) mix dye following manufacturer's instructions.
Activation of the TRPV1 receptor causes a Ca^+2 influx, and a direct relationship between fluorescence and TRPV1 receptor response can be established.
Fluorescence signal (AFU) was measured after excitation at 485 nm and emission at 520 nm using ClarioStar Plus microplate reader from BMG LABTECH.
The effect of tested compounds on intracellular Ca^+2 influx was studied 48 hours after cell seeding. The medium of TRPV1-overexpressing HEK cells was replaced by 90 µL/well of Fluo4-NW dye solution in assay buffer containing probenecid. […]
After 1 hour incubation at 37 °C, the plate was kept for 15 minutes at room temperature inside the fluorescence plate reader. After that, the program started with a stop in cycle 3 to add test compounds and capsazepine, 0.2% Triton X-100 (maximal signal control for dye loading) and assay buffer (minimal signal) and the fluorescence signal was recorded for 7 additional cycles. […] The signal was recorded until cycle 20. […]

[4] = vs non-treated human fibroblast

T1 sequence (Q8NER1 whole entry): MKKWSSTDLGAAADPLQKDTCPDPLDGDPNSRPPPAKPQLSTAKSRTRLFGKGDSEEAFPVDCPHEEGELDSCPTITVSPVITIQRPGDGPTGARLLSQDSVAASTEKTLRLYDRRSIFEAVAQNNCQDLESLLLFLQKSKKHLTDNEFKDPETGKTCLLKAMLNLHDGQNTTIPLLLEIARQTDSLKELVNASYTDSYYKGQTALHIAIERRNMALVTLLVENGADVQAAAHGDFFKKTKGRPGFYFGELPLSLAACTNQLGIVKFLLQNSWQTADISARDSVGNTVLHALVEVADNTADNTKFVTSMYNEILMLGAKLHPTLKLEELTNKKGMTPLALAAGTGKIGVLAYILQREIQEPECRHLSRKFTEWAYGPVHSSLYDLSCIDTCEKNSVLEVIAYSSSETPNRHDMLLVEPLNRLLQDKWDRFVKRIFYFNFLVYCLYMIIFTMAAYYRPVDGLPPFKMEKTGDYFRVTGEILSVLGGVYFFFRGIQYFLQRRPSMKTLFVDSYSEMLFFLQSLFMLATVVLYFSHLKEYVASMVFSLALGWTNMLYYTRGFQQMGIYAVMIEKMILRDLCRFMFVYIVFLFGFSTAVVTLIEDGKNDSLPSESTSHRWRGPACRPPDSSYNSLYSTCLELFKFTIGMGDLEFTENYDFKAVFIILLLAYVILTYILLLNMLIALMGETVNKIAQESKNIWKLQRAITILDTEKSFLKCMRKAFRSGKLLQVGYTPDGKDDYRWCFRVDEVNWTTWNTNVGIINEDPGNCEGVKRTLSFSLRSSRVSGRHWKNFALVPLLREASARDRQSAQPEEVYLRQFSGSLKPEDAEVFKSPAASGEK

In the case of `O=c1cc(CO)occ1O` [kojic acid], the inhibition at 250 µM ([1]; 250 µM kojic acid) is reported as 58%.
With `CC1=C(/C=C/C(C)=C/C=C/C(C)=C/CO)C(C)(C)CCC1` [retinol] the MMP1 gene expression [2, 4] was “elevation”, the MMP12 gene expression [2, 4] was “elevation” and the TIMP1 gene expression [2, 4] was “significantly upregulated”. For the same compound, the TIMP3 gene expression [2, 4] was “significantly upregulated”, the “gene expression associated with crucial ECM proteins” value ([2]; vs non-treated human fibroblast (100%)) was “comparable modulation of gene expression” and the inhibition at 10 µM ([1]; 10 µM retinol) was 76%. For the same compound, the intracellular calcium increase ([3]; retinol 50 µM) was “significant rise” and the intracellular calcium increase ([3]; retinol 100 µM) was “significant rise”.
